In ChEMBL document CHEMBL1201862, “PubChem BioAssay data set” (2004):
Where a name gives a salt, the structure may show the parent alone.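 Briefly, cells in 96-well plates were exposed to five compound concentrations for 48 h, and endpoints were estimated by linear interpolation. GI50 marks 50% less growth.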 Calls of active or inactive are those of the source. Cut-off read from the data, not from the text of the source: active = GI50 up to about 1.1 µM and inactive = higher.

How the values were obtained:
Test in all cases: NCI tumour cell line growth inhibition, 48 h
BT-549 = test system: BT-549
DLD-1 = test system: DLD-1
DMS-114 = test system: DMS-114
DMS-273 = test system: DMS-273
HOP-18 = test system: HOP-18
LXFL 529 = test system: LXFL 529
KM-20L2 = test system: KM-20L2
XF498 = test system: XF498

Structure (SMILES)	GI50 (BT-549)	GI50 (DLD-1)	GI50 (DMS-114)	GI50 (DMS-273)	other results
CN(C)c1nc(-c2ccccc2)c(C(=O)c2c[nH]c3ccccc23)s1	> 100 µM (inactive)				
Clc1ccc(OCc2nnc3sc(-c4ccc(-c5ccc(Cl)cc5Cl)o4)nn23)c(Cl)c1	21.4 µM (inactive)				
CC1(C)C=CC(=O)C(O)C(C)(C)C1=O (configuration not stated)	68.1 µM (inactive)				
COc1cc(C2C3=C(N=C4SC(C(C)=O)=C(C)N42)c2ccccc2CC3)cc(OC)c1OC (configuration not stated)	> 100 µM (inactive)				
NC1C(O)C(O)C(CO)OC1n1cc(F)c(=O)[nH]c1=O (configuration not stated)		> 100 µM (inactive)	> 100 µM (inactive)	> 100 µM (inactive)	GI50 (HOP-18): > 100 µM (inactive); GI50 (LXFL 529): > 100 µM (inactive)
N#Cc1nnn(-c2ccc(Br)cc2)c1O	> 100 µM (inactive)				
CC(=O)OCc1ccc(-c2nc(C#N)c(N)o2)o1	> 10 µM (inactive)				
CCCCCC(/C=C/c1ncccc1OCCCCCC(=O)O)=N\NC1=NCCN1			45.2 µM (inactive)	42.9 µM (inactive)	GI50 (KM-20L2): > 100 µM (inactive); GI50 (LXFL 529): 47.2 µM (inactive); GI50 (XF498): 27.3 µM (inactive)
CCOC(=O)C1S/C(=N\c2ccc(Cl)cc2Cl)N=C1C (configuration not stated)		73.6 µM (inactive)	33.1 µM (inactive)	61.1 µM (inactive)	GI50 (HOP-18): > 100 µM (inactive); GI50 (KM-20L2): > 100 µM (inactive); GI50 (LXFL 529): 75.2 µM (inactive); GI50 (XF498): 39.5 µM (inactive)
CC1(C)N=C(N)N=C(N)N1c1ccc(CCc2ccccc2)cc1		15.7 µM (inactive)	0.647 µM (active)	0.7 µM (active)	GI50 (HOP-18): 45.7 µM (inactive); GI50 (KM-20L2): 1.16 µM (inactive); GI50 (XF498): < 0.01 µM (active)
Clc1cc2nsnc2c(Cl)n1		20.3 µM (inactive)	15.6 µM (inactive)	36.3 µM (inactive)	GI50 (HOP-18): 17.5 µM (inactive); GI50 (KM-20L2): 37.6 µM (inactive); GI50 (LXFL 529): 14.4 µM (inactive); GI50 (XF498): 17.3 µM (inactive)
CN(C)/N=N/c1ccc(NC=O)cc1	> 100 µM (inactive)				
COc1ccc(C(c2ccc(C(C)C)cc(=O)c2O)c2ccc3cccnc3c2O)cc1 (configuration not stated)		0.45 µM (active)	0.173 µM (active)	0.31 µM (active)	GI50 (LXFL 529): 0.506 µM (active); GI50 (XF498): 2.17 µM (inactive)
COC(=O)C1Cc2c([nH]c3ccccc23)C=N1 (configuration not stated)		> 100 µM (inactive)	> 100 µM (inactive)	> 100 µM (inactive)	GI50 (HOP-18): > 100 µM (inactive); GI50 (KM-20L2): > 100 µM (inactive); GI50 (LXFL 529): > 100 µM (inactive)
CN1C(=O)[C@@H]2[C@@H]3c4ccccc4N(S(=O)(=O)C(F)(F)F)[C@@H]3c3[nH]c4ccccc4c3[C@@H]2C1=O	> 100 µM (inactive)				
CCOC(=O)/C(SC#N)=C(/N)N1CCCC1	> 100 µM (inactive)				
COc1ccc2c(c1)Cc1c(NCCN(C)C)ccc(C(=O)NCCCN(C)CCCNC(=O)c3ccc(NCCN(C)C)c4c3Nc3ccc(OC)cc3C4)c1N2	0.148 µM (active)				
Cc1c2ccncc2c(C)c2c1[nH]c1ccccc12 [ELLIPTECINE]		0.509 µM (active)	0.94 µM (active)	0.378 µM (active)	GI50 (HOP-18): 1.49 µM (inactive); GI50 (KM-20L2): 0.548 µM (active); GI50 (XF498): 1.81 µM (inactive)
O=C1C(=C2CCCC2)CCC1CN1CCCCC1 (configuration not stated)			17.5 µM (inactive)		GI50 (HOP-18): 15.3 µM (inactive); GI50 (KM-20L2): 17.5 µM (inactive); GI50 (LXFL 529): 13.2 µM (inactive)
OC[P+](CO)(CO)C12CC3CC(CC(C3)C1)C2	> 100 µM (inactive)				
CN1C2CCC1/C(=C/c1cccc3c1OCO3)C(=O)/C2=C\c1cccc2c1OCO2		> 100 µM (inactive)	> 100 µM (inactive)	45 µM (inactive)	GI50 (KM-20L2): > 100 µM (inactive); GI50 (LXFL 529): > 100 µM (inactive); GI50 (XF498): 25.3 µM (inactive)
Cc1ccnn1CCc1ccc(Cl)cc1Cl	13.6 µM (inactive)				

Structure (SMILES)	GI50 (BT-549)	GI50 (DLD-1)	GI50 (DMS-114)	GI50 (DMS-273)	other results
C[C@]12CC[C@H](O)CC1=CC[C@@H]1[C@@H]2CC[C@]2(C)C(=O)CC[C@@H]12 [PRASTERONE]	> 100 µM (inactive)				
CCc1ccc(COC(=O)C2=C(C)NC(C)=C(C(=O)OCc3ccc(CC)cn3)C2C2=COCCO2)nc1	14.4 µM (inactive)				
CN1c2ccccc2SC2C(c3ccccc3)=NOC21 (configuration not stated)	26.6 µM (inactive)				
O=C1c2ccccc2C(O)(C(=O)O)C1(O)CC=C(Cl)Cl (configuration not stated)		> 125 µM (inactive)	> 125 µM (inactive)	> 125 µM (inactive)	GI50 (HOP-18): > 125 µM (inactive); GI50 (KM-20L2): > 125 µM (inactive); GI50 (XF498): > 125 µM (inactive)
O=S(=O)(O)c1ccc2cc(/N=N\c3cc(S(=O)(=O)O)c4cccnc4c3O)ccc2c1	> 100 µM (inactive)				
CC(C)=CCc1c(O)c(CC2=C(O)C(CC=C(C)C)(C(=O)C(C)C)C(O)=C(C)C2=O)c(O)c(C(=O)C(C)C)c1O (configuration not stated)	11.6 µM (inactive)				
Cc1c(S(=O)(=O)c2ccccc2)c(N)n(CCN(C)C)c1C	36.1 µM (inactive)				
O=C(NCCCl)O/N=C/c1cccnc1		> 100 µM (inactive)	> 100 µM (inactive)	> 100 µM (inactive)	GI50 (HOP-18): > 100 µM (inactive); GI50 (XF498): > 100 µM (inactive)
COc1ccc(C2=C(N)c3c(Cl)cccc3C2=O)cc1	> 100 µM (inactive)				
CS(=O)(=O)OCCCNCCCOS(C)(=O)=O	1270 µM (inactive)	2810 µM (inactive)	849 µM (inactive)	328 µM (inactive)	GI50 (HOP-18): 1420 µM (inactive); GI50 (KM-20L2): 1990 µM (inactive); GI50 (XF498): 938 µM (inactive)
Cc1cc(C)c(/C=C2\C(=O)Nc3ccccc32)[nH]1 [SEMAXANIB]	> 100 µM (inactive)				
CCCCOC(=O)CC(CC(=O)OCCCC)(OC(C)=O)C(=O)OCCCC [ACETYLTRIBUTYL CITRATE]	> 200 µM (inactive)				
C=CCCC1(O)C(O)C(CO)O[C@H](O[C@@]2(CO)OC(CO)C(O)C2O)C1O (some centres not stated)	> 100 µM (inactive)				
O=C1Cc2c([nH]c3cc(Br)ccc23)-c2ccccc2N1	17.2 µM (inactive)				
CC(C)CCCC(C)[C@H]1CCC(C2C[C@@H](O)[C@@H]3CC(O)[C@@H](O)C[C@]3(CO)C2=O)[C@]1(C)CCO (some centres not stated)		31.7 µM (inactive)	20.6 µM (inactive)	32.3 µM (inactive)	GI50 (HOP-18): 23.7 µM (inactive); GI50 (KM-20L2): 20 µM (inactive); GI50 (XF498): > 42.9 µM (inactive)
CCOC(=O)CNC(=O)C(CSCc1ccc(Br)cc1)NC(=O)CCC(N)C(=O)OCC (configuration not stated)	> 50 µM (inactive)				
CN(C)c1cccc(/C=C(\C#N)c2ccccc2)c1	21.3 µM (inactive)				
NCC(=O)N[C@H]1c2ccsc2/C(=N/O)[C@H]1O	> 100 µM (inactive)				
CN1Cc2cc3c(cc2-c2ccccc21)OCO3		> 100 µM (inactive)		> 100 µM (inactive)	GI50 (HOP-18): > 100 µM (inactive); GI50 (KM-20L2): 91.6 µM (inactive); GI50 (LXFL 529): > 100 µM (inactive); GI50 (XF498): > 100 µM (inactive)
CC(=O)[C@H]1CC[C@@H]2[C@]1(C)CC=C1[C@]23C=C[C@]2(C[C@@H](O)CC[C@]12C)C(C(=O)O)C3C(=O)O (some centres not stated)	> 100 µM (inactive)				
O=C1CC2(CCC(O)(c3cccc4ccccc34)C(C(=O)c3cccc4ccccc34)C2)C(=O)c2ccccc2N1 (configuration not stated)	46.7 µM (inactive)				
Oc1ccc(C(=C(Br)c2ccccc2)c2ccc(O)cc2)cc1	4.44 µM (inactive)				

Structure (SMILES)	GI50 (BT-549)	GI50 (DLD-1)	GI50 (DMS-114)	GI50 (DMS-273)	other results
OCCN1c2ccccc2Sc2ccccc21	> 10 µM (inactive)				
CCn1c(=O)c(C(=O)O)c(Cl)c2cc3c(cc21)OCO3		> 100 µM (inactive)		> 100 µM (inactive)	GI50 (HOP-18): > 100 µM (inactive); GI50 (KM-20L2): > 100 µM (inactive); GI50 (XF498): > 100 µM (inactive)
COC(=O)[C@H](Cc1ccccc1)NP(=O)(O)OCC1C=CC(n2cc(C)c(=O)[nH]c2=O)O1 (some centres not stated)	> 100 µM (inactive)				
CCC1(O)CC(O)c2c(O)c3c(c(O)c2C1C(=O)OC)C(=O)c1cccc(O)c1C3=O (configuration not stated)	6.85 µM (inactive)				
CC1(C)CC(=O)c2c(nc3c4c([nH]c(-c5ccc([N+](=O)[O-])cc5)c24)CC(C)(C)C3)C1	34 µM (inactive)				
COC(=O)C1=C(C)N2CCOC2CC1c1ccccc1 (configuration not stated)		78.3 µM (inactive)	> 100 µM (inactive)		GI50 (KM-20L2): > 100 µM (inactive); GI50 (LXFL 529): > 100 µM (inactive)
O=C1Nc2ccccc2C(=O)/C1=C/NC(=S)NCCc1ccccc1	> 100 µM (inactive)				
O=C1C(N2CCNCC2)=C(Cl)C(=O)c2ncccc21	> 10 µM (inactive)				
CCCNC(C#N)c1ccc(C(C#N)NCCC)cc1 (configuration not stated)	> 100 µM (inactive)				
O=C(CCc1ccccc1)CC1OC(=O)C(Cl)=C1Cl (configuration not stated)		18 µM (inactive)		22.3 µM (inactive)	GI50 (HOP-18): 23.3 µM (inactive); GI50 (KM-20L2): 13.2 µM (inactive); GI50 (LXFL 529): 15.8 µM (inactive); GI50 (XF498): 25.7 µM (inactive)
C/C=C(\C)C(=O)OC1C2C(C)=CC(=O)C(O)C2(C)C2C3(O)OCC24C1OC(=O)C(OC(C)=O)C4C(C)C3O (configuration not stated)		0.0375 µM (active)	0.0375 µM (active)	0.0375 µM (active)	GI50 (HOP-18): 0.0811 µM (active); GI50 (KM-20L2): 0.0471 µM (active); GI50 (XF498): 0.0396 µM (active)
OCC1OC(n2cnc3c2NC=NC[C@H]3O)C(O)C1O (some centres not stated)		300 µM (inactive)	> 450 µM (inactive)	303 µM (inactive)	GI50 (HOP-18): 71.3 µM (inactive); GI50 (KM-20L2): 444 µM (inactive); GI50 (XF498): > 274 µM (inactive)
CCOC(=O)c1sc2nc(SC)nc3c2c1NC(=O)CN3c1cccc(F)c1	7.29 µM (inactive)				
COc1ccc(C(=O)C(C(=O)C(=O)NC2C3CC4CC(C3)CC2C4)c2ccc(OC)cc2)cc1 (configuration not stated)		> 100 µM (inactive)	> 100 µM (inactive)	> 100 µM (inactive)	GI50 (HOP-18): > 100 µM (inactive); GI50 (KM-20L2): > 100 µM (inactive); GI50 (LXFL 529): > 100 µM (inactive)
Cn1c(=O)c2nc3c(=O)n(C)c(=O)n(CC(N)=O)c3nc2n(C)c1=O	> 100 µM (inactive)				
Cc1cc(N(CCC#N)CCC#N)ccc1/C=C(\NC(=O)/C=C/c1ccccc1)C(=O)Nc1ccccc1Cl		> 100 µM (inactive)	> 100 µM (inactive)	> 100 µM (inactive)	GI50 (KM-20L2): > 100 µM (inactive); GI50 (LXFL 529): > 100 µM (inactive)
Clc1ccccc1C(n1ncc2ccccc21)n1ncc2ccccc21		40.5 µM (inactive)	31.3 µM (inactive)	45.2 µM (inactive)	GI50 (LXFL 529): 37 µM (inactive); GI50 (XF498): 14.5 µM (inactive)
COc1cc(C(=O)C2CC3(CCC2(O)c2cc(OC)c(OC)c(OC)c2)CC(=O)Nc2ccccc2C3=O)cc(OC)c1OC (configuration not stated)	> 100 µM (inactive)				
CCOP(=O)(OCC)C(Nc1ccc(C(=O)O)cc1)c1ccc(C(Nc2ccc(C(=O)O)cc2)P(=O)(OCC)OCC)cc1 (configuration not stated)	> 100 µM (inactive)				
Nc1nc(Cl)cc(NCC2(CCO)CCC2)n1	32.7 µM (inactive)				
O=c1cc(N2CCCC2)[nH]c(=O)n1-c1ccccc1	> 100 µM (inactive)				
